# Experiments:
# [1] = target: T1, human orexin-2 receptor (Homo sapiens, UniProt O43614); assay: FLIPR Ca2+ flux assay, OX2R; assay type: cell-based; conditions: for IC50: CHO cells expressing the human orexin-2 receptor, agonist 70 pM Ala-6,12 orexin-A; for Fold Selective: OX1R FLIPR / OX2R FLIPR
# T1 construct: expressed in transfected cells; host or cells: CHO cells (grown under G418 selection)
# T1 sequence (O43614 1-444): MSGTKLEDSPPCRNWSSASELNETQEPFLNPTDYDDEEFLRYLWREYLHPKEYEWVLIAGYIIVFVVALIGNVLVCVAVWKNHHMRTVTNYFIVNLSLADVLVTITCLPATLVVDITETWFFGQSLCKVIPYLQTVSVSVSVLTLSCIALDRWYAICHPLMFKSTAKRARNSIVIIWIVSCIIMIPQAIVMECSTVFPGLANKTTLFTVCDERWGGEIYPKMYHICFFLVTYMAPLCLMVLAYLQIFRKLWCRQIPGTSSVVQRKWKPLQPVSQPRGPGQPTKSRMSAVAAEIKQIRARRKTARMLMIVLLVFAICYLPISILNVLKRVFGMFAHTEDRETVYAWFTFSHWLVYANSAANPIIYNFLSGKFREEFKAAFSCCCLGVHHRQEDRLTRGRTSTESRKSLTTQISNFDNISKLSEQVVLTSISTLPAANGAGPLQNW
# Method: (§1) The utility of the compounds in accordance with the present invention as orexin receptor OX1R and/or OX2R antagonists may be readily determined without undue experimentation by methodology well known in the art, including the “FLIPR Ca^2+ Flux Assay” (Okumura et al., Biochem. Biophys. Res. Comm. 280:976-981, 2001). In a typical experiment the OX1 and OX2 receptor antagonistic activity of the compounds of the present invention was determined in accordance with the following experimental method. For intracellular calcium measurements, Chinese hamster ovary (CHO) cells expressing the rat orexin-1 receptor or the human orexin-2 receptor, are grown in Iscove's modified DMEM containing 2 mM L-glutamine, […], 1% hypoxanthine-thymidine supplement, 100 U/ml penicillin, 100 μg/ml streptomycin and 10% heat-inactivated fetal calf serum (FCS). The cells are seeded at 20,000 cells/well into Becton-Dickinson black 384-well clear bottom sterile plates coated with poly-D-lysine. All reagents were from GIBCO-Invitrogen Corp. The seeded plates are incubated overnight at 37° C. and 5% CO2. Ala-6,12 human orexin-A as the agonist is prepared as a 1 mM stock solution in 1% bovine serum albumin (BSA) and diluted in assay buffer (HBSS containing 20 mM HEPES, 0.1% BSA and 2.5 mM probenecid, pH7.4) for use in the assay at a final concentration of 70 pM. Test compounds are prepared as 10 mM stock solution in DMSO, then diluted in 384-well plates, first in DMSO, then assay buffer. On the day of the assay, cells are washed 3 times with 100 μl assay buffer and then incubated for 60 min (37° C., 5% CO2) in 60 μl assay buffer containing 1 μM Fluo-4AM ester, 0.02% pluronic acid, and 1% BSA. The dye loading solution is then aspirated and cells are washed 3 times with 100 μl assay buffer. 30 μl of that same buffer is left in each well. Within the Fluorescent Imaging Plate Reader (FLIPR, Molecular Devices), test compounds are added to the plate in a volume of 25 μl, incubated for 5 min and finally 25 μl of agonist is added. Fluorescence is measured for each well at 1 second intervals for 5 minutes and the height of each fluorescence peak is compared to the height of the fluorescence peak induced by 70 pM Ala-6,12 orexin-A with buffer in place of antagonist. For each antagonist, IC50 value (the concentration of compound needed to inhibit 50% of the agonist response) is determined. Alternatively, compound potency can be assessed by a radioligand binding assay (described in Bergman et. al. Bioorg. Med. Chem. Lett. 2008, 18, 1425-1430) in which the inhibition constant (Ki) is determined in membranes prepared from CHO cells expressing either the OX1 or OX2 receptor. The intrinsic orexin receptor antagonist activity of a compound which may be used in the present invention may be determined by these assays.
# [2] = target: T2, rat orexin-1 receptor (Rattus norvegicus, UniProt P56718); assay: FLIPR Ca2+ flux assay, OX1R; assay type: cell-based; conditions: CHO cells expressing the rat orexin-1 receptor; agonist 70 pM Ala-6,12 orexin-A
# T2 construct: expressed in transfected cells; host or cells: CHO cells (grown under G418 selection)
# T2 sequence (P56718 1-416): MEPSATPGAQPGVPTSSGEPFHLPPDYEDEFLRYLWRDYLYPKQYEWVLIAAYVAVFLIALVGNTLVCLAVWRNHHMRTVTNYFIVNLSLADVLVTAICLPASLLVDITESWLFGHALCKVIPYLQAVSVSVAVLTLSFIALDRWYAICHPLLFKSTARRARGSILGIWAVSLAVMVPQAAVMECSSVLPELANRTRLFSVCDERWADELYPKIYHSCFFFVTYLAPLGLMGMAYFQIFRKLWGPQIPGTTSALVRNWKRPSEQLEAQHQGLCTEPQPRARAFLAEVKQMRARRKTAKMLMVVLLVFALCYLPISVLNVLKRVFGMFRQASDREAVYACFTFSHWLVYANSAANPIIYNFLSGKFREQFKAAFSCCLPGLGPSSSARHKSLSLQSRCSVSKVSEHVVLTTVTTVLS
# Method: as §1
SMILES,IC50 [1] [µM],Fold Selective [1],IC50 [2] [µM]
"Cc1cc(C)nc(N2CC3CC2CN(C(=O)c2cccnc2OCC(F)(F)F)C3)n1 (stereo not drawn) [Example 22, 6-(4,6-dimethylpyrimidin-2-yl)-3-{[2-(2,2,2-trifluoroethoxy)pyridin-3-yl]carbonyl}-3,6-diazabicyclo[3.2.1]octane]",0.013,80,1.04
"Cc1cc(C)nc(N2CC3CC2CN(C(=O)c2cccc(F)c2C2CC2)C3)n1 (stereo not drawn) [Example 24, (2-cyclopropyl-3-fluorophenyl)(6-(4,6-dimethylpyrimidin-2-yl)-3,6-diazabicyclo[3.2.1]octan-3-yl)methanone]",0.017,44,0.743
"CCCc1ccccc1C(=O)N1CC2CC(C1)N(c1nc(C)cc(C)n1)C2 (stereo not drawn) [Example 27, 6-(4,6-dimethylpyrimidin-2-yl)-3-[(2-propylphenyl)carbonyl]-3,6-diazabicyclo[3.2.1]octane]",0.014,84,1.18
"Cc1cc(C)nc(N2CC3CC2CN(C(=O)c2ccccc2CS(C)(=O)=O)C3)n1 (stereo not drawn) [Example 28, 6-(4,6-dimethylpyrimidin-2-yl)-3-({2-[(methylsulfonyl)methyl]phenyl}carbonyl)-3,6-diazabicyclo[3.2.1]octane]",0.047,>213,> 10
"COc1ccc(C(=O)N2CC3CC(C2)N(c2nc(C)cc(C)n2)C3)c(-n2nccn2)n1 (stereo not drawn) [Example 30, 6-(4,6-dimethylpyrimidin-2-yl)-3-{[6-methoxy-2-(2H-1,2,3-triazol-2-yl)pyridin-3-yl]carbonyl}-3,6-diazabicyclo[3.2.1]octane]",0.117,>85,> 10
"Cc1cc(C)nc(N2CC3CC2CN(C(=O)c2ccccc2CC(F)F)C3)n1 (stereo not drawn) [Example 36, 3-{[2-(2,2-difluoroethyl)phenyl]carbonyl}-6-(4,6-dimethylpyrimidin-2-yl)-3,6-diazabicyclo[3.2.1]octane]",0.015,139,2.09
"Cc1cc(C)nc(N2CC3CC2CN(C(=O)c2ccccc2OCC(F)F)C3)n1 (stereo not drawn) [Example 37, 3-{[2-(2,2-difluoroethoxy)-phenyl]carbonyl}-6-(4,6-dimethylpyrimidin-2-yl)-3,6-diazabicyclo[3.2.1]octane]",0.014,61,0.851
Cc1cc(C)nc(N2CC3CC2CN(C(=O)c2cccnc2OC2CCCC2)C3)n1 (stereo not drawn) [Example 38],0.023,47,1.08
"Cc1cc(C)nc(N2CC3CC2CN(C(=O)c2cccnc2OCC(C)C)C3)n1 (stereo not drawn) [Example 40, 6-(4,6-dimethyl-pyrimidin-2-yl)-3-{[2-(2-methylpropoxy)pyridin-3-yl]carbonyl}-3,6-diazabicyclo[3.2.1]octane]",0.016,41,0.648
"Cc1cc(C)nc(N2CC3CC2CN(C(=O)c2cccnc2OCC2CC2(F)F)C3)n1 (stereo not drawn) [Example 41, 3-({2-[(2,2-difluorocyclopropyl)methoxy]pyridin-3-yl}carbonyl)-6-(4,6-dimethylpyrimidin-2-yl)-3,6-diazabicyclo[3.2.1]octane]",0.012,49,0.584

# Results, then the molecule that gave them:
IC50 [1] [µM],Fold Selective [1],IC50 [2] [µM],SMILES
0.103,>97,> 10,"Cc1cc(C)nc(N2CC3CC2CN(C(=O)c2cccnc2-c2noc(C)n2)C3)n1 (stereo not drawn) [Example 23, 6-(4,6-dimethylpyrimidin-2-yl)-3-{[2-(5-methyl-1,2,4-oxadiazol-3-yl)pyridin-3-yl]carbonyl}-3,6-diazabicyclo[3.2.1]octane]"
0.017,119,2.02,"Cc1cc(C)nc(N2CC3CC2CN(C(=O)c2ccccc2CC(F)(F)F)C3)n1 (stereo not drawn) [Example 25, 6-(4,6-dimethylpyrimidin-2-yl)-3-{[2-(2,2,2-trifluoroethyl)phenyl]carbonyl}-3,6-diazabicyclo[3.2.1]octane]"
0.01,114,1.14,"Cc1cc(C)nc(N2CC3CC2CN(C(=O)c2ccccc2OCC(F)(F)F)C3)n1 (stereo not drawn) [Example 26, 6-(4,6-dimethylpyrimidin-2-yl)-3-{[2-(2,2,2-trifluoroethoxy)-phenyl]carbonyl}-3,6-diazabicyclo[3.2.1]octane]"
0.013,86,1.12,"Cc1cc(C)nc(N2CC3CC2CN(C(=O)c2ccccc2C2(C#N)CC2)C3)n1 (stereo not drawn) [Example 29, 1-(2-{[6-(4,6-dimethylpyrimidin-2-yl)-3,6-diazabicyclo[3.2.1]oct-3-yl]carbonyl}-phenyl)-cyclopropanecarbonitrile]"
0.09,>111,> 10,"Cc1cc(C)nc(N2CC3CC2CN(C(=O)c2cccnc2-n2nccn2)C3)n1 (stereo not drawn) [Example 31, 6-(4,6-dimethylpyrimidin-2-yl)-3-{[2-(2H-1,2,3-triazol-2-yl)pyridin-3-yl]carbonyl}-3,6-diazabicyclo[3.2.1]octane]"
0.058,>172,> 10,"Cc1cc(C)nc(N2CC3CC2CN(C(=O)c2cccnc2CC(F)(F)F)C3)n1 (stereo not drawn) [Example 32, 6-(4,6-dimethylpyrimidin-2-yl)-3-{[2-(2,2,2-trifluoroethyl)pyridin-3-yl]carbonyl}-3,6-diazabicyclo[3.2.1]octane]"
0.044,91,3.99,"COCCc1ccccc1C(=O)N1CC2CC(C1)N(c1nc(C)cc(C)n1)C2 (stereo not drawn) [Example 33, 6-(4,6-dimethylpyrimidin-2-yl)-3-{[2-(2-methoxyethyl)-phenyl]carbonyl}-3,6-diazabicyclo[3.2.1]octane]"
0.024,112,2.68,"Cc1cc(C)nc(N2CC3CC2CN(C(=O)c2ccccc2OC(F)F)C3)n1 (stereo not drawn) [Example 34, 3-{[2-(difluoromethoxy)phenyl]carbonyl}-6-(4,6-dimethylpyrimidin-2-yl)-3,6-diazabicyclo[3.2.1]octane]"
0.047,>213,> 10,"Cc1cc(C)nc(N2CC3CC2CN(C(=O)c2cccnc2C2CC2)C3)n1 (stereo not drawn) [Example 35, 3-[(2-cyclopropylpyridin-3-yl)carbonyl]-6-(4,6-dimethylpyrimidin-2-yl)-3,6-diazabicyclo[3.2.1]octane]"
0.013,106,1.37,"Cc1cc(C)nc(N2CC3CC2CN(C(=O)c2cccnc2OCC2CC2)C3)n1 (stereo not drawn) [Example 39, 3-{[2-(cyclopropyl-methoxy)pyridin-3-yl]carbonyl}-6-(4,6-dimethylpyrimidin-2-yl)-3,6-diazabicyclo-[3.2.1]octane]"

# — patent publication US9994570B2, “Bridged diazepane orexin receptor antagonists” (MERCK SHARP & DOHME CORP., priority 2014, dated 2018)
